Consider 10 compounds from patent publication US20240116985A1, “STAPLED PEPTIDES AND METHODS THEREOF” (priority 2020, published 2024).

Data set [1] deals with T1, full-length beta-Catenin (Uniprot ID P35222) (Homo sapiens, UniProt P35222).
T1 construct: 10 nM full-length beta-Catenin (Uniprot ID P35222)
T1 sequence (P35222 1-781): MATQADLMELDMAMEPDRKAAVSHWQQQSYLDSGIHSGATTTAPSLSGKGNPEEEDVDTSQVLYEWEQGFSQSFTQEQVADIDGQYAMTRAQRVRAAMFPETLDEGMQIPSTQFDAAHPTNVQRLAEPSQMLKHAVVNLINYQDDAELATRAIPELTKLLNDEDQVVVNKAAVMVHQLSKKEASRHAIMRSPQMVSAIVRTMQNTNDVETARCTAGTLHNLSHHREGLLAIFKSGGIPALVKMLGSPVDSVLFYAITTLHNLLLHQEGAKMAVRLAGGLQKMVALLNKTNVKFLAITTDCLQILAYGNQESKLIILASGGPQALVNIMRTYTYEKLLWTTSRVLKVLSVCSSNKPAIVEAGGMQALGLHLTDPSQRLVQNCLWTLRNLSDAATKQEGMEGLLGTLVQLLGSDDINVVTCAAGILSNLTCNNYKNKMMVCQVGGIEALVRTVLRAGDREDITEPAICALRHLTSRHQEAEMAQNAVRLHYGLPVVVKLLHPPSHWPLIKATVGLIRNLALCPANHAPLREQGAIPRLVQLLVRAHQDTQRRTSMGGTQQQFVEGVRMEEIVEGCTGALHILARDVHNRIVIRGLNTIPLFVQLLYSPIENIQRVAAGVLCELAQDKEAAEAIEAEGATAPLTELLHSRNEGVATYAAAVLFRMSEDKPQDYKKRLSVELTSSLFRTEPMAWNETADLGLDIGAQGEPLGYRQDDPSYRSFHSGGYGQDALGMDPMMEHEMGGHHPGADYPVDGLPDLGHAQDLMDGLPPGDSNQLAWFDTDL
The data set is described as follows: Fluorescence polarization IC50 (beta-catenin / 5FAM-TCF4 10-53 competition). Type of data set: binding. For orientation: Fluorescence polarisation rises when a labelled molecule tumbles more slowly, as on binding a larger partner.

A further data set is described as follows: CHI Log D procedure. To be noted: pH 7.4. Type of data set: physicochemical.
The nature of the next data set: Solubility in PBS. It counts as physicochemical. The method, boiled down: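 Steps: ultracentrifuge the peptide PBS solution, inject the supernatant on HPLC, inject a 50 μM peptide DMSO solution as reference, then calculate solubility as area ratio (PBS/DMSO) × 50 uM.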
[2] abbreviates: fluorescence polarization, beta-catenin, read-out: FP EC50.

In brackets after ≈: the same amount, converted by molar mass. Like-named read-outs stand apart in the source and are kept apart here.

By Solubility is commonly meant the dissolved amount per volume that the medium holds. Low readings indicate a poorly soluble substance, high ones a readily soluble substance. `CC(=O)N1CCC[C@]12CC=CCCCC1(CCCC=CCCCOC(=O)N3CC[C@@](C(=O)N[C@@H](Cc4ccsc4)C(=O)N[C@@H](Cc4csc5ccccc45)C(=O)N[C@@H](C(N)=O)[C@H](C)O)(C3)NC(=O)[C@H](CC(N)=O)NC(=O)[C@H](Cc3ccccc3)NC(=O)[C@H](C)NC(=O)[C@H](C)NC(=O)[C@H](CN(CC(=O)O)CC(F)(F)F)NC(=O)[C@H](CC(=O)O)NC1=O)NC(=O)[C@H](CC(C)(C)C)NC(=O)[C@H](CC(=O)O)NC2=O` (stereo partly drawn) [I-949, Ac-PL3-Asp-Npg-B5-Asp-TfeGA-Ala-Ala-Phe-Asn-PyrS2-3Thi-BztA-dThr-NH2]: the IC50 in data set [1] (setting [2]) and in data set [1] (read-out: beta-Catenin FP IC50) was 2260 nM each time. Also, in “CHI Log D procedure”, the “CHI Log D” value is given as 2.086. Besides, in the data set “Solubility in PBS”, the “Solubility” value is 49 µM (≈ 98.1 µg/mL).

As for `CC(=O)N1CCC[C@]12CC=CCCCC1(CCCC=CCCCOC(=O)N3CC[C@@](C(=O)N[C@@H](Cc4ccsc4)C(=O)N[C@@H](Cc4csc5ccccc45)C(=O)N[C@@H](CCO)C(N)=O)(C3)NC(=O)[C@H](CC(N)=O)NC(=O)[C@H](Cc3ccccc3)NC(=O)[C@H](C)NC(=O)[C@H](C)NC(=O)[C@H](CN(CC(=O)O)CC(F)(F)F)NC(=O)[C@H](CC(=O)O)NC1=O)NC(=O)[C@H](CC(C)(C)C)NC(=O)[C@H](CC(=O)O)NC2=O` (stereo partly drawn) [I-950, Ac-PL3-Asp-Npg-B5-Asp-TfeGA-Ala-Ala-Phe-Asn-PyrS2-3Thi-BztA-Hse-NH2], the IC50 in data set [1] (setting [2]) and in data set [1] (read-out: beta-Catenin FP IC50) was 1630 nM in each case. Moreover, the “CHI Log D” value in the data set “CHI Log D procedure” was found to be 1.9. For the same compound, the “Solubility” value in the data set “Solubility in PBS” came out at 46 µM (≈ 92.1 µg/mL).

Consider `CC(=O)N1CCC[C@]12CC=CCCCC1(CCCC=CCCCOC(=O)N3CC[C@@](C(=O)N[C@@H](Cc4ccsc4)C(=O)N[C@@H](Cc4csc5ccccc45)C(=O)N[C@@H](CCO)C(N)=O)(C3)NC(=O)[C@H](CC(N)=O)NC(=O)[C@H](Cc3ccccc3)NC(=O)[C@H](C)NC(=O)[C@H](C)NC(=O)[C@H](CN(CC(=O)O)CC(F)(F)F)NC(=O)[C@H](CC(=O)O)NC1=O)NC(=O)[C@H](CC(C)(C)C)NC(=O)[C@H](CC(=O)O)NC2=O` (stereo partly drawn) [I-951, Ac-PL3-Asp-Npg-B5-Asp-TfeGA-Ala-Ala-Phe-Asn-PyrS2-3Thi-BztA-Hse-NH2], for which the IC50 in data set [1] (setting [2]) and in data set [1] (read-out: beta-Catenin FP IC50) was 1470 nM in each case. Also, the “CHI Log D” value in the data set “CHI Log D procedure” is reported as 1.971. In “Solubility in PBS”, the “Solubility” value was determined as 47 µM (≈ 94.1 µg/mL).

Regarding `CC(=O)N1CCC[C@]12CC=CCCCC1(CCCC=CCCCOC(=O)N3CC[C@@](C(=O)N[C@@H](Cc4ccsc4)C(=O)N[C@@H](Cc4csc5ccccc45)C(=O)N[C@@H](Cc4ccc(O)cc4)C(N)=O)(C3)NC(=O)[C@H](CC(N)=O)NC(=O)[C@H](Cc3ccccc3)NC(=O)[C@H](C)NC(=O)[C@H](C)NC(=O)[C@H](CN(CC(=O)O)CC(F)(F)F)NC(=O)[C@H](CC(=O)O)NC1=O)NC(=O)[C@H](CC(C)(C)C)NC(=O)[C@H](CC(=O)O)NC2=O` (stereo partly drawn) [I-953, Ac-PL3-Asp-Npg-B5-Asp-TfeGA-Ala-Ala-Phe-Asn-PyrS2-3Thi-BztA-Tyr-NH2], the IC50 in data set [1] (setting [2]) and in data set [1] (read-out: beta-Catenin FP IC50) was 1460 nM in each case. Further, the “CHI Log D” value in “CHI Log D procedure” is 2.04. In addition, in “Solubility in PBS”, the “Solubility” value was 47 µM (≈ 97 µg/mL).

On to `CC(=O)N1CCC[C@]12CC=CCCCC1(CCCC=CCCCOC(=O)N3CC[C@@](C(=O)N[C@@H](Cc4ccsc4)C(=O)N[C@@H](Cc4csc5ccccc45)C(=O)N[C@@H](CO)C(N)=O)(C3)NC(=O)[C@H](CO)NC(=O)[C@H](Cc3ccccc3)NC(=O)[C@H](C)NC(=O)[C@H](C)NC(=O)[C@H](CN(CC(=O)O)CC(F)(F)F)NC(=O)[C@H](CC(=O)O)NC1=O)NC(=O)[C@H](CC(C)(C)C)NC(=O)[C@H](CC(=O)O)NC2=O` (stereo partly drawn) [I-954, Ac-PL3-Asp-Npg-B5-Asp-TfeGA-Ala-Ala-Phe-Ser-PyrS2-3Thi-BztA-Ser-NH2], for which the IC50 in data set [1] (setting [2]) and in data set [1] (read-out: beta-Catenin FP IC50) was 900 nM each time. The “CHI Log D” value in the data set “CHI Log D procedure” was 1.918. In “Solubility in PBS”, the “Solubility” value was determined as 46 µM (≈ 90.2 µg/mL).

Regarding `CC(=O)N1CCC[C@]12CC=CCCCC1(CCCC=CCCCOC(=O)N3CC[C@@](C(=O)N[C@@H](Cc4ccsc4)C(=O)N[C@@H](Cc4csc5ccccc45)C(=O)N[C@@H](CO)C(N)=O)(C3)NC(=O)[C@H](CO)NC(=O)[C@H](Cc3ccccc3)NC(=O)[C@H](C)NC(=O)[C@H](C)NC(=O)[C@H](CN(CC(=O)O)CC(F)(F)F)NC(=O)[C@H](CC(=O)O)NC1=O)NC(=O)[C@H](CC(C)(C)C)NC(=O)[C@H](CC(=O)O)NC2=O` (stereo partly drawn) [I-955, Ac-PL3-Asp-Npg-B5-Asp-TfeGA-Ala-Ala-Phe-Ser-PyrS2-3Thi-BztA-Ser-NH2], the IC50 in data set [1] (setting [2]) and in data set [1] (read-out: beta-Catenin FP IC50) was 1200 nM each time. In addition, the “CHI Log D” value in “CHI Log D procedure” is reported as 1.998. In addition, the “Solubility” value in “Solubility in PBS” was found to be 45 µM (≈ 88.3 µg/mL).

Turning to `CC(=O)N1CCC[C@]12CC=CCCCC1(CCCC=CCCCOC(=O)N3CC[C@@](C(=O)N[C@@H](Cc4ccsc4)C(=O)N[C@@H](Cc4csc5ccccc45)C(=O)N[C@@H](CO)C(N)=O)(C3)NC(=O)[C@H]([C@@H](C)O)NC(=O)[C@H](Cc3ccccc3)NC(=O)[C@H](C)NC(=O)[C@H](C)NC(=O)[C@H](CN(CC(=O)O)CC(F)(F)F)NC(=O)[C@H](CC(=O)O)NC1=O)NC(=O)[C@H](CC(C)(C)C)NC(=O)[C@H](CC(=O)O)NC2=O` (stereo partly drawn) [I-956, Ac-PL3-Asp-Npg-B5-Asp-TfeGA-Ala-Ala-Phe-Thr-PyrS2-3Thi-BztA-Ser-NH2], the IC50 in data set [1] (setting [2]) and in data set [1] (read-out: beta-Catenin FP IC50) was 1090 nM throughout. In “CHI Log D procedure”, the “CHI Log D” value came to 1.875. Moreover, the “Solubility” value in the data set “Solubility in PBS” was determined as 46 µM (≈ 90.9 µg/mL).

As for `CC(=O)N1CCC[C@]12CC=CCCCC1(CCCC=CCCCOC(=O)N3CC[C@@](C(=O)N[C@@H](Cc4ccsc4)C(=O)N[C@@H](Cc4csc5ccccc45)C(=O)N[C@@H](CO)C(N)=O)(C3)NC(=O)[C@H]([C@@H](C)O)NC(=O)[C@H](Cc3ccccc3)NC(=O)[C@H](C)NC(=O)[C@H](C)NC(=O)[C@H](CN(CC(=O)O)CC(F)(F)F)NC(=O)[C@H](CC(=O)O)NC1=O)NC(=O)[C@H](CC(C)(C)C)NC(=O)[C@H](CC(=O)O)NC2=O` (stereo partly drawn) [I-957, Ac-PL3-Asp-Npg-B5-Asp-TfeGA-Ala-Ala-Phe-Thr-PyrS2-3Thi-BztA-Ser-NH2], the IC50 in data set [1] (setting [2]) and in data set [1] (read-out: beta-Catenin FP IC50) was 1430 nM throughout. Further, the “CHI Log D” value in the data set “CHI Log D procedure” was −0.043. In “Solubility in PBS”, the “Solubility” value came out at 46 µM (≈ 90.9 µg/mL).

In the case of `CC(=O)N1CCC[C@]12CC=CCCCC1(CCCC=CCCCOC(=O)N3CC[C@@](C(=O)N[C@@H](Cc4ccsc4)C(=O)N[C@@H](Cc4csc5ccccc45)C(=O)N[C@@H](CO)C(N)=O)(C3)NC(=O)[C@H](CCO)NC(=O)[C@H](Cc3ccccc3)NC(=O)[C@H](C)NC(=O)[C@H](C)NC(=O)[C@H](CN(CC(=O)O)CC(F)(F)F)NC(=O)[C@H](CC(=O)O)NC1=O)NC(=O)[C@H](CC(C)(C)C)NC(=O)[C@H](CC(=O)O)NC2=O` (stereo partly drawn) [I-958, Ac-PL3-Asp-Npg-B5-Asp-TfeGA-Ala-Ala-Phe-Hse-PyrS2-3Thi-BztA-Ser-NH2], the IC50 in data set [1] (setting [2]) and in data set [1] (read-out: beta-Catenin FP IC50) was 606 nM throughout. Moreover, in “CHI Log D procedure”, the “CHI Log D” value is on record as 1.417. Besides, the “Solubility” value in the data set “Solubility in PBS” came to 47 µM (≈ 92.8 µg/mL).

As for `CC(=O)N1CCC[C@]12CC=CCCCC1(CCCC=CCCCOC(=O)N3CC[C@@](C(=O)N[C@@H](Cc4ccsc4)C(=O)N[C@@H](Cc4csc5ccccc45)C(=O)N[C@@H](CO)C(N)=O)(C3)NC(=O)[C@H](CCO)NC(=O)[C@H](Cc3ccccc3)NC(=O)[C@H](C)NC(=O)[C@H](C)NC(=O)[C@H](CN(CC(=O)O)CC(F)(F)F)NC(=O)[C@H](CC(=O)O)NC1=O)NC(=O)[C@H](CC(C)(C)C)NC(=O)[C@H](CC(=O)O)NC2=O` (stereo partly drawn) [I-959, Ac-PL3-Asp-Npg-B5-Asp-TfeGA-Ala-Ala-Phe-Hse-PyrS2-3Thi-BztA-Ser-NH2], the IC50 in data set [1] (setting [2]) and in data set [1] (read-out: beta-Catenin FP IC50) was 881 nM in each case. Further, the “CHI Log D” value in the data set “CHI Log D procedure” is −0.036. Moreover, in “Solubility in PBS”, the “Solubility” value was found to be 48 µM (≈ 94.8 µg/mL).
